Experimental data published in patent US6342502B1, “Thieno[2,3-d]pyrimidine diones and their use in the treatment of reversible obstructive airways diseases” (AstraZeneca AB, priority 1997, dated 2002).

| SMILES | melting point [°C] |
| --- | --- |
| CC(C)Cn1c(=O)n(C)c(=O)c2c(S(=O)(=O)c3cccc(O)c3)c(Cc3cccc4ccccc34)sc21 [Example 29] | 209 to 210 |
| CC(C)Cn1c(=O)n(C)c(=O)c2cc(C(O)c3ccc([N+](=O)[O-])cc3)sc21 (stereo not shown) [Example 90, 6-[1-Hydroxy-(4-nitrophenyl)methyl]-3-methyl-1-(2-methylpropyl)thieno[2,3-d]pyrimidin-2,4(1H,3H)-dione] | 127 |
| CC(C)Cn1c(=O)n(C)c(=O)c2c(SCCCO)c(Cc3cccc(F)c3)sc21 [Example 86] | 99 to 100 |
| CC(C)Cn1c(=O)n(C)c(=O)c2c(Sc3cccc(N(S(C)(=O)=O)S(C)(=O)=O)c3)c(Cc3cccc4ccccc34)sc21 [Example 32, 5-{[3-{(Bis-methanesulfonyl)amino}phenyl]thio}-3-methyl-1-(2-methylpropyl)-6-(1-naphthalenylmethy)theino[2,3d]pyrimidine-2,4(1H, 3H)-dione] | 216 to 217 |
| CC(C)n1c(=O)n(C)c(=O)c2cc(Cc3ccccc3)sc21 [Example 13, 3-Methyl-1-(1-methylethyl)-6-(phenylmethyl)thieno[2,3-d]pyrimidine-2,4(1H,3H)-dione] | 91 to 93 |
| CC(=O)NCCCSc1c(Cc2cccc3ccccc23)sc2c1c(=O)n(C)c(=O)n2CC(C)C [Example 41] | 114 to 117 |
| CC(C)Cn1c(=O)[nH]c(=O)c2cc(Cc3cccc4ccccc34)sc21 [Example 3, 1-(2-Methylpropyl)-6-(1-naphthalenylmethyl)thieno[2,3-d]pyrimidine-2,4(1H,3H)-dione] | 189 to 190 |
| CC(C)Cn1c(=O)n(C)c(=O)c2cc(C(O)c3ccccc3)sc21 (stereo not shown) [Example 14, 6-[(1-Hydroxy-1-phenyl)methyl]-3-methyl-1-(2-methylpropyl)thieno[2,3-d]pyrimidine-2,4(1H,3H)-dione] | 140 to 142 |
| COC(=O)CCCS(=O)(=O)c1c(Cc2cccc3ccccc23)sc2c1c(=O)n(C)c(=O)n2CC(C)C [Example 10, Methyl 4-[(1,2,3,4-tetrahydro-3-methyl-1-(2-methylpropyl)-6-(1-naphthalenylmethyl)-2,4-dioxothieno[2,3-d]pyrimidin-5-yl)sulfonyl]butanoate] | 122 to 124 |
| CC(C)Cn1c(=O)n(C)c(=O)c2cc(Cc3ccccc3C(N)=O)sc21 [Example 82, 2-[(1,2,3,4-tetrahydro-3-methyl-1-(2-methylpropyl)-2,4-dioxothieno[2,3-d]pyrimidin-6-yl)methyl]benzamido] | 183 |
| CC(C)Cn1c(=O)n(C)c(=O)c2c(Sc3cccc(N)c3)c(Cc3cccc4ccccc34)sc21 [Example 31, 5-[(3-Aminophenyl)thio]-3-methyl-1-(2-methylpropyl)-6-(1-naphthalenylmethyl)-thieno[2,3-d]pyrimidine-2,4-(1H, 3H)-dione] | 149 to 150 |
| CC(C)Cn1c(=O)n(C)c(=O)c2cc(C(O)c3cccc(F)c3)sc21 (stereo not shown) [Example 51, 6-[(1-Hydroxy-1-(3-fluorophenyl))methyl]-3-methyl-1l-(2-methylpropyl)thieno[2,3-d]pyrimiidine-2,4-(1H, 3H)-dione] | 54 |
| CC(C)Cn1c(=O)n(C)c(=O)c2c(Sc3ccccn3)c(Cc3cccc4ccccc34)sc21 [Example 5, 3-Methyl-1-(2-methylpropyl)-6-(1-naphthalenylmethyl)-5-[(2-pyridinyl)thio]thieno[2,3-d]pyrimidine-2,4(1H,3H)-dione] | 148 to 149 |

Results, then the molecule that gave them:

| melting point [°C] | SMILES |
| --- | --- |
| 111 to 112 | COC(=O)CCCSc1c(Cc2cccc3ccccc23)sc2c1c(=O)n(C)c(=O)n2CC(C)C [Example 7, Methyl 4-[(1,2,3,4-tetrahydro-3-methyl-1-(2-methylpropyl)-6-(1-naphthalenylmethyl)-2,4-dioxothieno[2,3-d]pyrimidin-5-y)thio]butanoate] |
| 111 | C=C(C)Cn1c(=O)n(C)c(=O)c2cc(Cc3ccc(OC)cc3)sc21 [Example 2, 6-(4-Methoxyphenylmethyl)-3-methyl-1-(2-methyl-2-propenyl)thieno[2,3-d]pyrimidine-2,4(1H,3H)-dione] |
| 100 to 105 | CC(C)Cn1c(=O)n(C)c(=O)c2c(SCCCO)c(C(O)c3cccc4ccccc34)sc21 (racemic) [Example 83, (±) 6-(1-Hydroxy-1-[1-naphthalenyl]methyl)-5-([3-hydroxypropyl]thio)-3-methyl-1-(2-methylpropyl)thieno[2,3-d]pyrimidine-2,4(1H,3H)-dione] |
| 200 to 201 | CC(C)Cn1c(=O)n(C)c(=O)c2c(Sc3cccc(O)c3)c(Cc3cccc4ccccc34)sc21 [Example 27, 5-[(3-Hydroxyphenyl)thio]-3-methyl-1-(2-methylpropyl)-6-(1-naphthalenylmethyl)thieno[2,3-d]pyrimidine-2,4-(1H,3H)-dione] |
| 228 to 229 | CC(C)Cn1c(=O)n(C)c(=O)c2c(Sc3cccc[n+]3[O-])c(Cc3cccc4ccccc34)sc21 [Example 38, 2-{[1,2,3,4-Tetrahydro-3-methyl-1-(2-methylpropyl)-6-(1-naphthalenylmethyl)-2,4-dioxothieno[2,3-d]pyrimidin-5-yl]thio}pyridine N-oxide] |
| 162 to 163 | CC(C)Cn1c(=O)n(C)c(=O)c2c(SCCC(C)O)c(Cc3cccc4ccccc34)sc21 (racemic) [Example 85, (±)-5-[(3-Hydroxybutyl)thio]-3-methyl-1-(2-methylpropyl)-6-(1-naphthalenylmethyl)thieno2,3-d]pyrimidine-2,4(1H,3H)-dione] |
| 193 to 194 | CC(C)Cn1c(=O)n(C)c(=O)c2c(C(=O)NCCO)c(Cc3cccc4ccccc34)sc21 [Example 16, 1,2,3,4-Tetrahydro-N-(2-hydroxyethyl)-3-methyl-1-(2-methylpropyl)-6-(1-naphthalenylmethyl)-2,4-dioxothieno[2,3-d]pyrimidine-5-carboxamide] |
| 104 | CC(C)Cn1c(=O)n(C)c(=O)c2cc(Cc3ccc(N)cc3)sc21 [Example 92, 6-(4-Aminophenylmethyl)-3-methyl-1-(2-methylpropyl)thieno[2,3-d]pyrimidine-2,4-(1H, 3H)-dione] |
| 144 to 146 | CC(C)Cn1c(=O)n(C)c(=O)c2c(C(=O)N(C)C)c(Cc3ccccc3)sc21 [Example 89, 1,2,3,4-Tetrahydro-3,N,N-trimethyl-1-(2-methylpropyl)-6-phenylmethy-2,4-dioxothieno[2,3-d]pyrimidine-5-carboxamide] |
| 72 to 73 | CC(C)Cn1c(=O)n(C)c(=O)c2cc(Cc3ccccc3)sc21 [Example 12, 6-Benzyl-3-methyl-1-(2-methylpropyl)thieno[2,3-d]pyrimidine-2,4(1H,3H)-dione] |
| 152 | CC(C)Cn1c(=O)n(C)c(=O)c2cc(C3OC(=N)c4ccccc43)sc21 (stereo not shown) [Example 81, 6-(3-Imino-1,3-dihydro-benzo[c]furan-1-yl)-3-methyl-1-(2-methylpropyl)thieno[2,3-d]pyrimidine-2,4(1H, 3H)-dione] |
| 208 to 209 | CC(C)Cn1c(=O)n(C)c(=O)c2c(Sc3ccc(N)cn3)c(Cc3cccc4ccccc34)sc21 [Example 87, 5-[(5-Amino-2-pyridinyl)thio]-3-methyl-1-(2-methylpropyl)-6-(1-naphthalenylmethyl)thieno[2,3-d]pyrimidine-2,4(1H,3H)-dione] |
